From patent US10494384B2, “Urea peptoid boric acid compound, pharmaceutical composition thereof, preparation method therefor, and uses thereof” (Peking University, priority 2015, dated 2019)
Read-outs that look alike come from different tables or passages of the source.

What was measured:
[1] = biological target: T1, 20S proteasome extracted from rat liver (CT-L) (Rattus norvegicus, UniProt P18421+P28075); experiment: inhibition of 20S proteasome, CT-L activity (fluorescent peptide); format: biochemical; conditions: rat liver 20S proteasome, 37° C., 1 h, read-out: inhibition rates (%) CT-L
T1 construct: 20S proteasome extracted from rat liver; from tissue; host or cells: rat liver
Description: (§1) 1 μg of 20S proteasome extracted from rat liver was incubated with a 100 μL solution containing various concentrations of the present compounds, 50 μM fluorescent peptides and 20 mM Tris-HCl at 37° C. for 1 h, respectively. […] 0.1% DMSO was used as a solvent control. Compared with the fluorescence of solvent control, an inhibition rate or IC50 value was calculated.

[2] = biological target: T2, 20S proteasome extracted from rat liver (PGPH) (Rattus norvegicus, UniProt P28073+Q9JHW0); experiment: inhibition of 20S proteasome, PGPH activity (fluorescent peptide); format: biochemical; conditions: rat liver 20S proteasome, 37° C., 1 h, read-out: inhibition rates (%) PGPH
T2 construct: 20S proteasome extracted from rat liver; from tissue; host or cells: rat liver
Description: as §1

[3] = biological target: T3, 20S proteasome extracted from rat liver (T-L) (Rattus norvegicus, UniProt P40112+Q9JHW0); experiment: inhibition of 20S proteasome, T-L activity (fluorescent peptide); format: biochemical; conditions: rat liver 20S proteasome, 37° C., 1 h, read-out: inhibition rates (%) T-L
T3 construct: 20S proteasome extracted from rat liver; from tissue; host or cells: rat liver
Description: as §1

[4] = tested on: Hela, human cervical carcinoma; experiment: preliminary anti-tumor screening in vitro, MTT method; format: cell-based; conditions: read-out: inhibition rates (%) Hela
Method in brief: (§2)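 Inhibition rates measured at 0.1, 1 or 10 μM compound; cell growth read by MTT for Hela, SRB for BGC-823, MCF-7 and A549.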

A549, human lung cancer = experiment: preliminary anti-tumor screening in vitro, SRB method; format: cell-based; conditions: read-out: inhibition rates (%) A549
Method in brief: as §2

BGC-823, liver cancer = experiment: as above; format: cell-based; conditions: Homo sapiens, read-out: inhibition rates (%) BGC-823
Method in brief: as §2

MCF-7, breast cancer = experiment: as above; format: cell-based; conditions: Homo sapiens, read-out: inhibition rates (%) MCF-7; for inhibition at 0.1 µM: MCF7, 0.1 μM; for inhibition at 1 µM: MCF7, 1 μM; for inhibition at 10 µM: MCF7, 10 μM
Method in brief: as §2

95D = experiment: anti-tumor activity in vitro (IC50), MTT; format: cell-based; conditions: Homo sapiens, 72 h
Description: (§3) Cancer cells were cultured in vitro. When cell growth reached logarithmic phase, the cells were collected and centrifuged at 1000 rpm for 5 min, before the supernate was removed and the cells were suspended in a moderate amount of medium, and then the concentration of cell was adjusted to 3.5×10^4/mL. The cell suspension was added into a 96-well plate with 100 μL per well and cultured in a cell incubator (37° C., 5% CO2) for 24 h. Then test drugs of different end concentrations were added, and the negative control group was added DMSO (end concentration was 0.5%), while each group afforded three repetitive holes. After cultivation for another 72 h in the cell incubator, a solution containing 5 mg/ml MTT (20 μL) was added into each well and the 96-well plate was placed at 37° C. for 3 h. To each well was added 150 μL DMSO, after oscillation in a shaking table for 5 min, the optical density (OD) values at 492 nm/620 nm were measured. IC50 values were calculated by Prism Graphpad statistical software.

A549 = experiment: anti-tumor activity in vitro (IC50), MTT; format: cell-based; conditions: Homo sapiens, 72 h
Description: as §3

BEL7404 = experiment: anti-tumor activity in vitro (IC50), MTT; format: cell-based; conditions: Homo sapiens, BEL-7404, 72 h
Description: as §3

HCT116 = experiment: anti-tumor activity in vitro (IC50), MTT; format: cell-based; conditions: Homo sapiens, HCT-116, 72 h
Description: as §3

HL-60 = experiment: anti-tumor activity in vitro (IC50), MTT; format: cell-based; conditions: Homo sapiens, 72 h
Description: as §3

Hela = experiment: anti-tumor activity in vitro (IC50), MTT; format: cell-based; conditions: Homo sapiens, 72 h
Description: as §3

HepG2 liver cancer cells = experiment: anti-tumor activity in vitro (IC50), MTT; format: cell-based; conditions: Homo sapiens, 72 h
Description: as §3

MDA-MB-231 = experiment: anti-tumor activity in vitro (IC50), MTT; format: cell-based; conditions: Homo sapiens, 72 h
Description: as §3

[5] = tested on: MGC803 stomach cancer cells; experiment: anti-tumor activity in vitro (IC50), MTT; format: cell-based; conditions: Homo sapiens, MGC-803, 72 h
Description: as §3

MKN45 = experiment: anti-tumor activity in vitro (IC50), MTT; format: cell-based; conditions: Homo sapiens, MKN-45, 72 h
Description: as §3

SKOV3 = experiment: anti-tumor activity in vitro (IC50), MTT; format: cell-based; conditions: Homo sapiens, SK-OV-3, 72 h
Description: as §3

SW1990 = experiment: anti-tumor activity in vitro (IC50), MTT; format: cell-based; conditions: Homo sapiens, 72 h
Description: as §3

[6] = liver cancer cells, read-out: IC50 (μM) HepG2
[7] = stomach cancer cells, MTT, read-out: IC50 (μM) MGC803

CC(C)C[C@H](NC(=O)[C@H](Cc1ccccc1)NC(=O)NCc1cccc(Cl)c1Cl)B(O)O [Example 20, N-L-phenylalanyl-L-leucine borate-N′-(2,3-dichloro-benzylamine)-urea]
inhibition at 0.2 µM ([1]; 0.2 μM): 91.9% | inhibition at 2 µM ([1]; 2 μM): 96.5% | inhibition at 20 µM ([1]; 20 μM): 97% | inhibition at 0.2 µM ([2]; 0.2 μM): -23% | inhibition at 2 µM ([2]; 2 μM): -26.6% | inhibition at 20 µM ([2]; 20 μM): -28.9% | inhibition at 0.2 µM ([3]; 0.2 μM): 35.6% | inhibition at 2 µM ([3]; 2 μM): 83.7% | inhibition at 20 µM ([3]; 20 μM): 92.6% | inhibition at 0.1 µM [4]: 17.4% | inhibition at 1 µM [4]: 42.5% | inhibition at 10 µM [4]: 75.7% | inhibition at 0.1 µM (A549, human lung cancer): 65% | inhibition at 1 µM (A549, human lung cancer): 68.2% | inhibition at 10 µM (A549, human lung cancer): 69.3% | inhibition at 0.1 µM (BGC-823, liver cancer): 50% | inhibition at 1 µM (BGC-823, liver cancer): 47.1% | inhibition at 10 µM (BGC-823, liver cancer): 50.2% | inhibition at 0.1 µM (MCF-7, breast cancer): 32.2% | inhibition at 1 µM (MCF-7, breast cancer): 42.2% | inhibition at 10 µM (MCF-7, breast cancer): 45.5% | IC50 (95D): 41 nM | IC50 (A549): 1020 nM | IC50 (BEL7404): 42.2 nM | IC50 (HCT116): 23 nM | IC50 (HL-60): 27 nM | IC50 (Hela): 117 nM | IC50 (HepG2 liver cancer cells; read-out: IC50 HepG2): 0.026 µM | IC50 (HepG2 liver cancer cells; [6]): 0.0378 µM | IC50 (MDA-MB-231): 25.1 nM | IC50 ([5]; MTT, read-out: IC50 MGC803): 0.0175 µM | IC50 [5, 7]: 0.00733 µM | IC50 (MKN45): 20.1 nM | IC50 (SKOV3): 46.3 nM | IC50 (SW1990): 80.3 nM | melting point: 119 to 122 °C

CC(C)C[C@H](NC(=O)[C@H](Cc1ccccc1)NC(=O)c1cnccn1)B(O)O [positive control, bortezomib, reference compound]
inhibition at 0.1 µM [4]: 41.6% | inhibition at 1 µM [4]: 43.2% | inhibition at 10 µM [4]: 47.3% | inhibition at 0.1 µM (A549, human lung cancer): 59.9% | inhibition at 1 µM (A549, human lung cancer): 63.8% | inhibition at 10 µM (A549, human lung cancer): 66.1% | inhibition at 0.1 µM (BGC-823, liver cancer): 41% | inhibition at 1 µM (BGC-823, liver cancer): 43.6% | inhibition at 10 µM (BGC-823, liver cancer): 46.8% | inhibition at 0.1 µM (MCF-7, breast cancer): 27.6% | inhibition at 1 µM (MCF-7, breast cancer): 32.8% | inhibition at 10 µM (MCF-7, breast cancer): 40.7% | IC50 (HL-60): 7.6 nM | IC50 (Hela): 224 nM | IC50 (HepG2 liver cancer cells; read-out: IC50 HepG2): 0.00161 µM | IC50 (HepG2 liver cancer cells; [6]): 0.0366 µM | IC50 ([5]; MGC80-3, MTT, value ± spread, read-out: IC50 (μM), growth of stomach cancer cells (MGC80-3)): 0.0057 ± 0.001 µM | IC50 ([5]; MTT, read-out: IC50 MGC803): 0.00654 µM | IC50 [5, 7]: 0.00578 µM
